Measurements taken from patent US5070210A, “Novel ketenimines as intermediates for insecticides” (ICI Americas Inc., priority 1990, dated 1991).

Assays:
Format in all cases: in vivo
[1] = tested on: Housefly [Musca domestica]; test: Housefly insecticidal test; conditions: μg per 25 female flies; mortality after 48 hours
How it was run: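 Acetone solutions (with 0.01% peanut oil) dried onto dish bottoms, then 25 female flies, 1-2 days old, caged over the residue with sugar water. Mortality scored at 48 hours; LC50 from dosage-mortality curves, in μg per 25 female flies, top level 100 μg.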

[2] = tested on: Maize weevil [Sitophilus Zeamais (Motschulsky)]; test: Maize weevil insecticidal test; conditions: adult weevils, percent in solution; 48 hours
Experimental: The compounds in Tables 1 and 2 above were tested for insecticidal activity using the following testing procedures. LC50 values, based on the results of these tests and calculated according to dosage-mortality curves, are expressed in Table 3.
Maize weevil [Sitophilus Zeamais (Motschulsky)]:
Test compounds were diluted in a 50:50 acetone:water solution. Four corn seeds [Zea mays (L.)] which had been immersed in test solutions for 2-3 seconds and allowed to dry were placed in containers together with 10 adult weevils. The containers were covered and kept at a temperature of about 25° C. Mortality was recorded after 48 hours. Test concentrations ranged from 0.01% down to that at which 50% mortalilty occurred. The LC50 values are expressed below in Table 3 under the heading "MW" in terms of percent of the test compound in solution.

[3] = tested on: Cabbage Looper [Trichoplusia ni (Hubner)]; test: Cabbage looper insecticidal test; conditions: second-instar larvae, percent in solution; 3-5 days
How it was run: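 LC50 values, given as percent test compound in solution, were calculated from dosage-mortality curves. Squash cotyledons were immersed 2-3 s in acetone-water (50-50) dilutions starting at 0.1%, dried on a screen, then infested with five second-instar larvae. Mortality was read 3-5 days on.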

[4] = tested on: Tobacco Budworm [Heliothis virescens (Fabricius)] eggs; test: Tobacco budworm egg test; conditions: 2-day old eggs, percent in solution
How it was run: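 2-day eggs on paper towel, acetone dip, 0.1% and below; petri dish with larval diet, 78° F. Mortality read after control hatch and larval feeding. LC50 = % compound in solution, from dose-mortality curve.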

| Structure (SMILES) | LC50, HF [1] [µg] | LC50, MW [2] [%] | LC50, CL [3] [%] | LC50, TBW, E (TBW-E) [4] [%] |
| --- | --- | --- | --- | --- |
| CC(C)C(=Nc1ccc(C(F)(F)F)cc1Cl)OCc1ccc(F)c(Oc2ccccc2)c1 [Compound 428] | > 100 | > 0.01 | 0.0017 | > 0.1 |
| CC(C)C(=Nc1ccc(OCC(F)(F)F)c(F)c1)OCc1cccc(Oc2ccc(Cl)cc2)c1 [Compound 429] | > 100 | > 0.01 | 0.0017 | < 0.1 |
| C=C(C)C(=Nc1ccc(C(F)(F)F)cc1)OCc1cccc(Oc2ccccc2)c1 [Compound 430] | < 100 | 0.004 | 0.001 | 0.032 |
| CC(C)C(=Nc1ccc(C(F)(F)F)c(Br)c1)OCc1ccc(F)c(Oc2ccccc2)c1 [Compound 434] | < 100 | 0.009 | 0.0017 | > 0.1 |
| COc1ccc(N=C(OCc2ccc(F)c(Oc3ccccc3)c2)C(C)C)cc1F [Compound 435] | < 100 | > 0.01 | 0.002 | 0.04 |
| CC(C)C(=Nc1cccc(OC(F)(F)F)c1)OCc1ccc(F)c(Oc2ccc(Cl)cc2)c1 [Compound 436] | < 100 | > 0.01 | 0.00075 | < 0.1 |
| CC(C)C(=Nc1cccc(OC(F)(F)F)c1)OCc1ccc(F)c(Oc2ccccc2)c1 [Compound 437] | < 100 | > 0.01 | 0.00075 | 0.025 |
| CCc1ccc(N=C(OCc2cccc(Oc3ccc(F)cc3)c2)C(C)C)cc1Cl [Compound 438] | > 100 | > 0.01 | 0.0009 | < 0.1 |
| CCOc1ccc(N=C(OCc2ccc(F)c(Oc3ccccc3)c2)C(C)C)cc1F [Compound 439] | > 100 | > 0.01 | 0.00045 | > 0.1 |
| CCCc1ccc(N=C(OCc2ccc(F)c(Oc3ccc(F)cc3)c2)C(C)C)cc1 [Compound 440] | > 100 | > 0.01 | 0.002 | < 0.1 |
| CC(C)C(=Nc1ccc(Cl)c(F)c1)OCc1ccc(F)c(Oc2ccc(F)cc2)c1 [Compound 441] | < 100 | 0.006 | 0.000025 | 0.016 |
| C=C(C)C(=Nc1ccc(C(F)(F)F)cc1)OCc1cccc(Oc2ccc(F)cc2)c1 [Compound 442] | < 100 | > 0.01 | 0.0007 | 0.035 |
| Fc1ccc(COC(=Nc2ccc(C(F)(F)F)cc2)C2CC2)cc1Oc1ccccc1 [Compound 443] | < 100 | < 0.01 | 0.00015 | 0.017 |
| Fc1ccc(COC(=Nc2ccc(C(F)(F)F)cc2)C2CC2)cc1Oc1ccc(Cl)cc1 [Compound 444] | > 100 | > 0.01 | 0.00015 | 0.023 |
| CC(C)C(=Nc1ccc(C(F)(F)F)cc1[N+](=O)[O-])OCc1ccc(F)c(Oc2ccccc2)c1 [Compound 445] | < 100 | > 0.01 | 0.00045 | > 0.1 |
| CCOc1ccc(N=C(OCc2cccc(Oc3ccc(F)cc3)c2)C(C)C)cc1Br [Compound 446] | > 100 | > 0.01 | 0.0008 | < 0.1 |
| CC(C)C(=Nc1ccc(F)c(I)c1)OCc1cccc(Oc2ccc(F)cc2)c1 [Compound 449] | 13 | 0.0075 | 0.0001 | 0.025 |
| CC(C)C(=Nc1cccc(C(F)(F)F)c1)OC(C)c1cccc(Oc2ccccc2)c1 (centres unmarked) [Compound 459] | > 100 | > 0.01 | 0.008 | 0.1 |
| CC(C)C(=Nc1ccc(F)c(Cl)c1)OCc1cccc(Oc2c(F)c(F)c(F)c(F)c2F)c1 [Compound 460] | > 100 | > 0.01 | 0.02 | > 0.1 |

| Structure (SMILES) | LC50, HF [1] [µg] | LC50, MW [2] [%] | LC50, CL [3] [%] | LC50, TBW, E (TBW-E) [4] [%] |
| --- | --- | --- | --- | --- |
| CC(C)C(=Nc1ccc(I)c(Cl)c1)OCc1cccc(Oc2ccc(Cl)cc2)n1 [Compound 471] | < 100 | > 0.01 | 0.00018 | 0.018 |
| CC(C)C(=Nc1cccc(C(F)(F)F)c1)OCc1cccc(Oc2ccc(Cl)cc2)n1 [Compound 477] | 20 | 0.0076 | 0.0003 | > 0.1 |
| CC(C)C(=Nc1ccc(Br)cc1)OCc1coc(Cc2ccccc2)c1 [Compound 478] | 15 | > 0.01 | 0.0037 | > 0.1 |
| CC(C)C(=Nc1cccc(C(F)(F)F)c1)OCc1coc(Cc2ccccc2)c1 [Compound 482] | 36 | > 0.01 | 0.01 | > 0.1 |
| CC(C)C(=Nc1ccc2c(c1)OCO2)OCc1coc(Cc2ccccc2)c1 [Compound 483] | 6 | > 0.01 | 0.001 | 0.05 |
| CC(C)C(=Nc1ccc(F)cc1F)OCc1coc(Cc2ccccc2)c1 [Compound 486] | 15 | > 0.01 | > 0.1 | > 0.1 |
| COCc1c(F)c(F)c(COC(=Nc2cccc(C(F)(F)F)c2)C(C)C)c(F)c1F [Compound 503] | 21 | > 0.01 | 0.001 | 0.08 |
| CC(C)C(=Nc1ccc(C(F)(F)F)cc1)OCc1cccc(Oc2ccccc2)n1 [Compound 504] | < 100 | 0.01 | 0.00025 | 0.05 |
| COCc1c(F)c(F)c(COC(=Nc2ccc(F)c(Cl)c2)C(C)C)c(F)c1F [Compound 505] | 14 | > 0.01 | 0.0024 | 0.09 |
| CC(C)C(=Nc1cccc(C(F)(F)F)c1)OCc1cc(Oc2ccccc2)ccn1 [Compound 506] | 40 | > 0.01 | 0.005 | > 0.1 |
| CC(C)C(=Nc1cccc(C(F)(F)F)c1)OCc1ccnc(Oc2ccccc2)c1 [Compound 507] | 93 | > 0.01 | 0.002 | > 0.1 |
| CC(C)C(=Nc1cccc(C(F)(F)F)c1)OCc1cc(Oc2ccc(Cl)cc2)ccn1 [Compound 509] | 79 | > 0.01 | 0.0075 | > 0.1 |
| CC(C)C(=Nc1ccc(F)c(Cl)c1)OCc1ccnc(Oc2ccccc2)c1 [Compound 510] | 54 | > 0.01 | 0.017 | > 0.1 |
| CC(C)C(=Nc1ccc(F)c(Cl)c1)OCc1ccnc(Oc2ccc(F)cc2)c1 [Compound 511] | 89 | > 0.01 | 0.0012 | > 0.1 |
| CC(C)C(=Nc1ccc(OC(F)(F)F)cc1)OCc1cccc(Oc2ccccc2)n1 [Compound 550] | < 100 | > 0.01 | 0.00034 | > 0.1 |
| CC(C)C(=Nc1ccc(Br)c(F)c1)OCc1cccc(Oc2ccc(Cl)cc2)n1 [Compound 551] | < 100 | > 0.01 | 0.00075 | 0.035 |
| CCc1ccc(N=C(OCc2cccc(Oc3ccc(Cl)cc3)n2)C(C)C)cc1 [Compound 552] | > 100 | > 0.01 | 0.0016 | > 0.1 |
| CC(C)C(=Nc1ccc(Cl)cc1)OCc1cccc(Oc2ccccc2)n1 [Compound 553] | < 100 | > 0.01 | < 0.1 | 0.1 |
| CC(C)C(=Nc1ccc(Cl)cc1)OCc1cccc(Oc2ccc(Cl)cc2)n1 [Compound 554] | > 100 | > 0.01 | 0.00075 | 0.04 |
